molecular target: Recombinant Human Poly(ADP-Ribose) Polymerase (PARP), PARP-1 (Homo sapiens (Human), UniProt P09874); settings: read-out: PARP-1 (Ki)
Sequence (P09874 whole entry): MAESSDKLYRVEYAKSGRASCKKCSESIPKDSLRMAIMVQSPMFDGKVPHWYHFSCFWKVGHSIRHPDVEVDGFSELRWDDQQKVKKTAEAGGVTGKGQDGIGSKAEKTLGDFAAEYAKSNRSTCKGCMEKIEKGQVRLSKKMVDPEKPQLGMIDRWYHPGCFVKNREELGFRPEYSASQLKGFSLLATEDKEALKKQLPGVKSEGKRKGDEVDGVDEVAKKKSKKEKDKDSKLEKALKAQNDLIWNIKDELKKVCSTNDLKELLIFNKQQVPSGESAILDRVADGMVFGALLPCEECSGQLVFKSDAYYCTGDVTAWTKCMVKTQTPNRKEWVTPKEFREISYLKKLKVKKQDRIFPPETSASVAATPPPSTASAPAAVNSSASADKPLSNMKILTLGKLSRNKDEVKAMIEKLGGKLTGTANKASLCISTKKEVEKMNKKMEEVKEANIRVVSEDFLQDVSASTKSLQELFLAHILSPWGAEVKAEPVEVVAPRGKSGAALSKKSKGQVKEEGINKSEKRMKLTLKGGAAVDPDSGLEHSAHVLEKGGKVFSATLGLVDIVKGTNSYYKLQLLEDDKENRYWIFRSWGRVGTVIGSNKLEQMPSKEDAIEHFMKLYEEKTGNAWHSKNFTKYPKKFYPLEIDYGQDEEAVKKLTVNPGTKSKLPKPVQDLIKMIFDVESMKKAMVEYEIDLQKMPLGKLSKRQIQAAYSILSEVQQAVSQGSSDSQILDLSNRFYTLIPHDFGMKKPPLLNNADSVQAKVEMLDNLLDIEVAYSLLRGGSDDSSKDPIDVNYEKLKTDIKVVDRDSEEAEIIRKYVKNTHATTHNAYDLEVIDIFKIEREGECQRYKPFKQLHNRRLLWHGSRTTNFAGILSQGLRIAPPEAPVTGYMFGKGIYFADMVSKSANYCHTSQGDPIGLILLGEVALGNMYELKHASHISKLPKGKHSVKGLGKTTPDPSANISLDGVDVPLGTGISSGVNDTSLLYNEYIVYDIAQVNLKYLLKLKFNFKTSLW
Method: Nicotinamide[2,5′,8-3H]adenine dinucleotide and strepavidin SPA beads were purchased from Amersham Biosiences. […] NAD^+, histone, aminobenzamide, 3-amino benzamide and Calf Thymus DNA (dcDNA) were purchased from Sigma. Stem loop oligonucleotide containing MCAT sequence was obtained from Qiagen. The oligos were dissolved to 1 mM in annealing buffer containing 10 mM Tris HCl pH 7.5, 1 mM EDTA, and 50 mM NaCl, incubated for 5 minutes at 95° C., and annealed at 45° C. for 45 minutes. […] Biotinylated histone H1 was prepared by treating the protein with Sulfo-NHS-LC-Biotin from Pierce. The biotinylation reaction was conducted by slowly and intermittently adding 3 equivalents of 10 mM Sulfo-NHS-LC-Biotin to 100 μM Histone H1 in phosphate-buffered saline, pH 7.5, at 4° C. with gentle vortexing over 1 minute followed by subsequent 4° C. incubation for 1 hour. Streptavidin coated (FlashPlate Plus) microplates were purchased from Perkin Elmer.
PARP1 assay was conducted in PARP assay buffer containing 50 mM Tris pH 8.0, 1 mM DTT, 4 mM MgCl2. […] Auto reactions utilizing SPA bead-based detection were carried out in 100 μL volumes in white 96 well plates.

Row | SMILES | Ki
1 | CC(C)C[C@H](NC(=O)Nc1cc(Cc2n[nH]c(=O)c3c2CCCC3)ccc1F)C(=O)O [Example 626, N-[({2-fluoro-5-[(4-oxo-3,4,5,6,7,8-hexahydrophthalazin-1-yl)methyl]phenyl}amino)carbonyl]leucine] | 173 nM

same assay, conditions: read-out: PARP-1 (Ki); Table 1; text calls the values EC50s

Row | SMILES | Ki
2 | O=C(COc1ccccc1)N1CCN(C(=O)c2cc(Cc3n[nH]c(=O)c4c3CCCC4)ccc2F)CC1 [Example 590, 4-(4-fluoro-3-{[4-(phenoxyacetyl)piperazin-1-yl]carbonyl}benzyl)-5,6,7,8-tetrahydrophthalazin-1(2H)-one] | 1.9 nM
3 | O=C(COc1ccccc1)N1CCN(C(=O)c2cc(Cc3n[nH]c(=O)c4c3NCCC4)ccc2F)CC1 [Example 591, 8-(4-fluoro-3-{[4-(phenoxyacetyl)piperazin-1-yl]carbonyl}benzyl)-2,3,4,6-tetrahydropyrido[2,3-d]pyridazin-5(1H)-one] | 0.5 nM
4 | CC(C)(C)C(=O)N1CCN(C(=O)c2cc(Cc3n[nH]c(=O)c4c3NCCC4)ccc2F)CC1 [Example 593, 8-(3-{[4-(2,2-dimethylpropanoyl)piperazin-1-yl]carbonyl}-4-fluorobenzyl)-2,3,4,6-tetrahydropyrido[2,3-d]pyridazin-5(1H)-one] | 1.3 nM
5 | CCS(=O)(=O)N1CCN(C(=O)c2cc(Cc3n[nH]c(=O)c4c3NCCC4)ccc2F)CC1 [Example 594] | 0.7 nM
6 | CC(=O)N(C)C1CCN(C(=O)c2cc(Cc3n[nH]c(=O)c4c3NCCC4)ccc2F)C1 (stereo not drawn) [Example 595, N-(1-{2-fluoro-5-[(5-oxo-1,2,3,4,5,6-hexahydropyrido[2,3-d]pyridazin-8-yl)methyl]benzoyl}pyrrolidine-3-yl)-N-methylacetamide] | 6 nM
7 | CCN(C(C)=O)C1CCN(C(=O)c2cc(Cc3n[nH]c(=O)c4c3NCCC4)ccc2F)C1 (stereo not drawn) [Example 596, N-ethyl-N-(1-{2-fluoro-5-[(5-oxo-1,2,3,4,5,6-hexahydropyrido[2,3-d]pyridazin-8-yl)methyl]benzoyl}pyrrolidine-3-yl)acetamide] | 6 nM
8 | CCC(=O)N1CCN(C(=O)c2cc(Cc3n[nH]c(=O)c4c3NCCC4)ccc2F)CC1 [Example 597, 8-{4-fluoro-3-[(4-propionylpiperazin-1-yl)carbonyl]benzyl}-2,3,4,6-tetrahydropyrido[2,3-d]pyridazin-5(1H)-one] | 0.8 nM
9 | COc1ccc(N2CCN(C(=O)c3cc(Cc4n[nH]c(=O)c5c4NCCC5)ccc3F)CC2)cc1 [Example 599, 8-(4-fluoro-3-{[4-(4-methoxyphenyl)piperazin-1-yl]carbonyl}benzyl)-2,3,4,6-tetrahydropyrido[2,3-d]pyridazin-5(1H)-one] | 1.1 nM
10 | COc1ccc(S(=O)(=O)N2CCN(C(=O)c3cc(Cc4n[nH]c(=O)c5c4NCCC5)ccc3F)CC2)cc1 [Example 600, 8-[4-fluoro-3-({4-[(4-methoxyphenyl)sulfonyl]piperazin-1-yl}carbonyl)benzyl]-2,3,4,6-tetrahydropyrido[2,3-d]pyridazin-5(1H)-one] | 0.7 nM
11 | COc1ccc(C(=O)N2CCN(C(=O)c3cc(Cc4n[nH]c(=O)c5c4NCCC5)ccc3F)CC2)cc1 [Example 601, 8-(4-fluoro-3-{[4-(4-methoxybenzoyl)piperazin-1-yl]carbonyl}benzyl)-2,3,4,6-tetrahydropyrido[2,3-d]pyridazin-5(1H)-one] | 1.1 nM
12 | O=C(c1cc(Cc2n[nH]c(=O)c3c2NCCC3)ccc1F)N1CCN(c2cccc(C(F)(F)F)c2)CC1 [Example 602, 8-[4-fluoro-3-({4-[3-(trifluoromethyl)phenyl]piperazin-1-yl}carbonyl)benzyl]-2,3,4,6-tetrahydropyrido[2,3-d]pyridazin-5(1H)-one] | 3 nM
13 | CN(C)CCCN1CCCN(C(=O)c2cc(Cc3n[nH]c(=O)c4c3NCCC4)ccc2F)C1 [Example 604, 8-(3-{[3-[3-(dimethylamino)propyl]tetrahydropyrimidin-1(2H)-yl]carbonyl}-4-fluorobenzyl)-2,3,4,6-tetrahydropyrido[2,3-d]pyridazin-5(1H)-one] | 15 nM
14 | O=C1NC(Cc2ccccc2)C(=O)N1c1cc(Cc2n[nH]c(=O)c3c2NCCC3)ccc1F (stereo not drawn) [Example 605, 5-benzyl-3-{2-fluoro-5-[(5-oxo-1,2,3,4,5,6-hexahydropyrido[2,3-d]pyridazin-8-yl)methyl]phenyl}imidazolidine-2,4-dione] | 32 nM
15 | O=C(c1ccccc1)C1CCN(C(=O)c2cc(Cc3n[nH]c(=O)c4c3NCCC4)ccc2F)CC1 [Example 609, 8-{3-[(4-benzoylpiperidin-1-yl)carbonyl]-4-fluorobenzyl}-2,3,4,6-tetrahydropyrido[2,3-d]pyridazin-5(1H)-one] | 1.8 nM
16 | COc1ccc(C(=O)C2CCN(C(=O)c3cc(Cc4n[nH]c(=O)c5c4NCCC5)ccc3F)CC2)cc1 [Example 610, 8-(4-fluoro-3-{[4-(4-methoxybenzoyl)piperidin-1-yl]carbonyl}benzyl)-2,3,4,6-tetrahydropyrido[2,3-d]pyridazin-5(1H)-one] | 1.7 nM
17 | O=C(c1ccc2cc[nH]c2c1)N1CCN(C(=O)c2cc(Cc3n[nH]c(=O)c4c3NCCC4)ccc2F)CC1 [Example 611, 8-(4-fluoro-3-{[4-(1H-indol-6-ylcarbonyl)piperazin-1-yl]carbonyl}benzyl)-2,3,4,6-tetrahydropyrido[2,3-d]pyridazin-5(1H)-one] | 1.6 nM

Row | SMILES | Ki
18 | O=C(OCc1ccccc1)N1CCN(C(=O)c2cc(Cc3n[nH]c(=O)c4c3NCCC4)ccc2F)CC1 [Example 613, benzyl 4-{2-fluoro-5-[(5-oxo-1,2,3,4,5,6-hexahydropyrido[2,3-d]pyridazin-8-yl)methyl]benzoyl}piperazine-1-carboxylate] | 1.8 nM
19 | CC(C)(C)OC(=O)N1CCN(C(=O)c2cc(Cc3n[nH]c(=O)c4c3NCCC4)ccc2F)[C@H](c2ccccc2)C1 [Example 614, tert-butyl (3R)-4-{2-fluoro-5-[(5-oxo-1,2,3,4,5,6-hexahydropyrido[2,3-d]pyridazin-8-yl)methyl]benzoyl}-3-phenylpiperazine-1-carboxylate] | 25 nM
20 | C[C@@H]1CN(C(=O)c2ccccc2)CCN1C(=O)c1cc(Cc2n[nH]c(=O)c3c2NCCC3)ccc1F [Example 616, 8-(3-{[(2R)-4-benzoyl-2-methylpiperazin-1-yl]carbonyl}-4-fluorobenzyl)-2,3,4,6-tetrahydropyrido[2,3-d]pyridazin-5(1H)-one] | 2.3 nM
21 | CN(C(=O)Nc1cc(Cc2n[nH]c(=O)c3c2CCCC3)ccc1F)c1ccccc1 [Example 618, N′-{2-fluoro-5-[(4-oxo-3,4,5,6,7,8-hexahydrophthalazin-1-yl)methyl]phenyl}-N-methyl-N-phenylurea] | 41 nM
22 | CCN(C(C)=O)C1CCN(C(=O)c2cc(Cc3n[nH]c(=O)c4c3CCCC4)ccc2F)C1 (stereo not drawn) [Example 619, N-ethyl-N-(1-{2-fluoro-5-[(4-oxo-3,4,5,6,7,8-hexahydrophthalazin-1-yl)methyl]benzoyl}pyrrolidine-3-yl)acetamide] | 4 nM
23 | COc1ccc(S(=O)(=O)N2CCN(C(=O)c3cc(Cc4n[nH]c(=O)c5c4CCCC5)ccc3F)CC2)cc1 [Example 620, 4-[4-fluoro-3-({4-[(4-methoxyphenyl)sulfonyl]piperazin-1-yl}carbonyl)benzyl]-5,6,7,8-tetrahydrophthalazin-1(2H)-one] | 2.2 nM
24 | O=C(c1cc(Cc2n[nH]c(=O)c3c2CCCC3)ccc1F)N1CCN(c2cccc(C(F)(F)F)c2)CC1 [Example 621, 4-[4-fluoro-3-({4-[3-(trifluoromethyl)phenyl]piperazin-1-yl}carbonyl)benzyl]-5,6,7,8-tetrahydrophthalazin-1(2H)-one] | 8 nM
25 | COc1ccc(C(=O)N2CCN(C(=O)c3cc(Cc4n[nH]c(=O)c5c4CCCC5)ccc3F)CC2)cc1 [Example 622, 4-(4-fluoro-3-{[4-(4-methoxybenzoyl)piperazin-1-yl]carbonyl}benzyl)-5,6,7,8-tetrahydrophthalazin-1(2H)-one] | 2.4 nM
26 | COc1ccc(N2CCN(C(=O)c3cc(Cc4n[nH]c(=O)c5c4CCCC5)ccc3F)CC2)cc1 [Example 623, 4-(4-fluoro-3-{[4-(4-methoxyphenyl)piperazin-1-yl]carbonyl}benzyl)-5,6,7,8-tetrahydrophthalazin-1(2H)-one] | 3 nM
27 | O=C(c1cc(Cc2n[nH]c(=O)c3c2CCCC3)ccc1F)N1CCN(C(=O)C2CCCCC2)CC1 [Example 624, 4-(3-{[4-(cyclohexylcarbonyl)piperazin-1-yl]carbonyl}-4-fluorobenzyl)-5,6,7,8-tetrahydrophthalazin-1(2H)-one] | 2.5 nM
28 | O=C(O)CNC(=O)Nc1cc(Cc2n[nH]c(=O)c3c2CCCC3)ccc1F [Example 625, N-[({2-fluoro-5-[(4-oxo-3,4,5,6,7,8-hexahydrophthalazin-1-yl)methyl]phenyl}amino)carbonyl]glycine] | 21 nM
29 | C[C@H](NC(=O)Nc1cc(Cc2n[nH]c(=O)c3c2CCCC3)ccc1F)C(=O)O [Example 627, N-[({2-fluoro-5-[(4-oxo-3,4,5,6,7,8-hexahydrophthalazin-1-yl)methyl]phenyl}amino)carbonyl]alanine] | 85 nM
30 | O=C(Nc1cc(Cc2n[nH]c(=O)c3c2CCCC3)ccc1F)N[C@@H](Cc1ccccc1)C(=O)O [Example 628, N-[({2-fluoro-5-[(4-oxo-3,4,5,6,7,8-hexahydrophthalazin-1-yl)methyl]phenyl}amino)carbonyl]phenylalanine] | 54 nM
31 | O=C1CNC(=O)N1c1cc(Cc2n[nH]c(=O)c3c2CCCC3)ccc1F [Example 630, 3-{2-fluoro-5-[(4-oxo-3,4,5,6,7,8-hexahydrophthalazin-1-yl)methyl]phenyl}imidazolidine-2,4-dione] | 0.7 nM
32 | COc1ccccc1N1CCN(C(=O)c2cc(Cc3n[nH]c(=O)c4c3NCCC4)ccc2F)CC1 [Example 631, 8-(4-fluoro-3-{[4-(2-methoxyphenyl)piperazin-1-yl]carbonyl}benzyl)-2,3,4,6-tetrahydropyrido[2,3-d]pyridazin-5(1H)-one] | 2.8 nM
33 | O=C(c1cc(Cc2n[nH]c(=O)c3c2NCCC3)ccc1F)N1CCN(c2ncncn2)CC1 [Example 632, 8-(4-fluoro-3-{[4-(1,3,5-triazin-2-yl)piperazin-1-yl]carbonyl}benzyl)-2,3,4,6-tetrahydropyrido[2,3-d]pyridazin-5(1H)-one] | 0.9 nM

From US9283222B2 (priority 2006, dated 2016)
